Like-named read-outs stand apart in the source and are kept apart here. Bridge positions count the residues as written; N and C are the ends. Square brackets hold non-standard residues; d marks the D form. Peptide text beside a SMILES is read from it. 2Nal = N[C@@H](Cc1ccc2ccccc2c1)C(=O)O; hArg = N=C(N)NCCCC[C@H](N)C(=O)O; Cit = NC(=O)NCCC[C@H](N)C(=O)O

The target in this assay is T1, CGRP1 receptor (Homo sapiens, UniProt O60894+Q16602).
T1 construct: SK-N-MC cells express CRLR and RAMP1, which form CGRP1 receptor; endogenous in cells; host or cells: SK-N-MC human neuroblastoma cells
T1 sequence (Q16602 23-461): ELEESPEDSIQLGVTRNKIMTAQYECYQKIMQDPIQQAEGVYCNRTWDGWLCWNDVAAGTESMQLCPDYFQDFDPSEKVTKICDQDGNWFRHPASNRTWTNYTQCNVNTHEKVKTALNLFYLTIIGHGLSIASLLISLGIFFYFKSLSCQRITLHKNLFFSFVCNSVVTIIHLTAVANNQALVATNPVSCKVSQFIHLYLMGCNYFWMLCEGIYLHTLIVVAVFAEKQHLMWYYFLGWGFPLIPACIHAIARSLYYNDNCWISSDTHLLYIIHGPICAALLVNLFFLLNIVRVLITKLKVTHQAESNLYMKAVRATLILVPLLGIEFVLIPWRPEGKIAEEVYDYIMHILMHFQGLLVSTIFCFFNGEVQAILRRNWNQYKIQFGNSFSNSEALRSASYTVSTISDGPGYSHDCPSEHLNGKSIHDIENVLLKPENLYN
T1 sequence (O60894 27-148): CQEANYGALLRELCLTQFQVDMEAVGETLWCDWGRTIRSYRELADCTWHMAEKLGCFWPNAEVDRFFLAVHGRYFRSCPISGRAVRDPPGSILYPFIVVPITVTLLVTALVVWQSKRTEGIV
Put plainly: in vitro CGRP1 receptor mediated cAMP assay in SK-N-MC cells. To be noted: for IC50: unconjugated peptide. The class given is cell-based. How it is done:
The in vitro cAMP assay employed a human neuroblastoma-derived cell line (SK-N-MC). SK-N-MC cells express CRLR and RAMP1, which form CGRP1 receptor. CGRP1 receptor is a G-protein coupled receptor linked to the stimulatory G-protein, Gs. […] Briefly, two days before the assay, the cells were plated in 96-well plates in growth medium. On the day of the assay cells were rinsed with PBS followed by the addition of 60 μl of plasma free medium for 15 minutes at room temperature. […] The medium was then removed and the cells were lysed with 100 μl lysis buffer for 30 minutes at 37° C. for 30 minutes. Using a Tropix ELISA kit (Applied Biosystems, Foster City, Calif.), a cAMP-AP conjugate was diluted (1:100) and added (30 μl) to each well of a 96-well ELISA plate. An aliquot of the lysis buffer from the cell plate was then added to the ELISA plate followed by an aliquot of the cAMP antibody. This mixture was incubated for 1 hour at room temperature with gentle shaking. The ELISA plate was then washed 6× with wash buffer followed by the additions of a substrate enhancer. This mixture was incubated for 30 minutes at room temperature and then read on a MicroBeta Jet or EnVision plate reader. The results were analyzed using Prism (GraphPad).
In general terms: Changes in cAMP serve as a functional read-out for many G protein-coupled receptors.

Where [1] appears, read: Table 2C, read-out: Peptide IC50.

As usually defined, the IC50 is the concentration at which inhibition is half-maximal. On to `CC(=O)N[C@@H](Cc1c[nH]c2ccccc12)C(=O)N[C@H](C(=O)N[C@H](C(=O)N[C@@H](Cc1c[nH]cn1)C(=O)N[C@@H](CCCNC(=N)N)C(=O)N[C@@H](CC(C)C)C(=O)N[C@@H](C)C(=O)NCC(=O)N[C@@H](CC(C)C)C(=O)N[C@@H](CC(C)C)C(=O)N[C@@H](CO)C(=O)N[C@@H](CCCNC(=N)N)C(=O)N[C@@H](CO)C(=O)NCC(=O)NCC(=O)N[C@H](C(=O)N[C@H](C(=O)N[C@@H](CCCNC(=N)N)C(=O)N[C@@H](CCCCN)C(=O)N[C@@H](CC(N)=O)C(=O)N[C@@H](Cc1ccc2ccccc2c1)C(=O)N[C@H](C(=O)N1CCC[C@H]1C(=O)N[C@H](C(=O)N[C@@H](CC(=O)O)C(=O)N[C@H](C(=O)NCC(=O)N1CCC[C@H]1C(=O)N[C@@H](Cc1ccccc1)C(=O)N[C@@H](C)C(=O)N[C@@H](Cc1ccccc1)C(N)=O)C(C)C)[C@@H](C)O)C(C)C)C(C)C)C(C)C)[C@@H](C)O)C(C)C` [compound 912] (Ac-WVTHRLAGLLSRSGGVVRKN[2Nal]VPTDVGPFAF-NH2), for which the IC50 under setting [1] is 1.16 nM.

Regarding `CC(=O)N[C@@H](Cc1c[nH]c2ccccc12)C(=O)N[C@H](C(=O)N[C@H](C(=O)N[C@@H](Cc1c[nH]cn1)C(=O)N[C@@H](CCCCNC(=N)N)C(=O)N[C@@H](CC(C)C)C(=O)N[C@@H](C)C(=O)NCC(=O)N[C@@H](CC(C)C)C(=O)N[C@@H](CC(C)C)C(=O)N[C@@H](CO)C(=O)N[C@@H](CCCNC(N)=O)C(=O)N[C@@H](CO)C(=O)NCC(=O)NCC(=O)N[C@H](C(=O)N[C@H](C(=O)N[C@@H](CCCCNC(=N)N)C(=O)N[C@@H](CCCCN)C(=O)N[C@@H](CC(N)=O)C(=O)N[C@@H](Cc1ccccc1)C(=O)N[C@H](C(=O)N1CCC[C@H]1C(=O)N[C@H](C(=O)N[C@@H](CC(=O)O)C(=O)N[C@H](C(=O)NCC(=O)N1CCC[C@H]1C(=O)N[C@@H](Cc1ccc2ccccc2c1)C(=O)N[C@@H](C)C(=O)N[C@@H](Cc1ccccc1)C(N)=O)C(C)C)[C@@H](C)O)C(C)C)C(C)C)C(C)C)[C@@H](C)O)C(C)C` [compound 926] (Ac-WVTH[hArg]LAGLLS[Cit]SGGVV[hArg]KNFVPTDVGP[2Nal]AF-NH2), the IC50 under setting [1] was determined as 0.88 nM. In the case of “SEQ ID NO:22 (WVTHXLAGLLSRSGGVVRKNFVPTDVGPFAF; CGRP peptide; MOD_RES (1)..(1): …ON; MISC_FEATURE (5)..(5): xaa=homoarginine; MISC_FEATURE (19)..(19): PEGylated; MOD_RES (31)..(31): AMIDATION)”, the “antagonist activity in cAMP assay, in words” value was “retaining their CGRP1 receptor antagonist activity”. Regarding `CC(=O)N[C@@H](Cc1c[nH]c2ccccc12)C(=O)N[C@H](C(=O)N[C@H]1CCC(=O)NCCCC[C@@H](C(=O)NCC(=O)N[C@@H](CC(C)C)C(=O)N[C@@H](CC(C)C)C(=O)N[C@@H](CO)C(=O)N[C@@H](CCCCNC(=N)N)C(=O)N[C@@H](CO)C(=O)NCC(=O)NCC(=O)N[C@H](C(=O)N[C@H](C(=O)N[C@@H](CCCCNC(=N)N)C(=O)N[C@@H](CCCCN)C(=O)N[C@@H](CC(N)=O)C(=O)N[C@@H](Cc2ccccc2)C(=O)N[C@H](C(=O)N2CCC[C@H]2C(=O)N[C@H](C(=O)N[C@@H](CC(=O)O)C(=O)N[C@H](C(=O)NCC(=O)N2CCC[C@H]2C(=O)N[C@@H](Cc2ccccc2)C(=O)N[C@@H](C)C(=O)N[C@@H](Cc2ccccc2)C(N)=O)C(C)C)[C@@H](C)O)C(C)C)C(C)C)C(C)C)NC(=O)[C@H](CC(C)C)NC(=O)[C@H](CCCNC(=N)N)NC(=O)[C@H](Cc2c[nH]cn2)NC1=O)C(C)C` [compound 905] (Ac-WVEHRLKGLLS[hArg]SGGVV[hArg]KNFVPTDVGPFAF-NH2; lactam 3-7), the IC50 (Peptide IC50, Table 2C) came out at 1.7 nM.

The record behind these values is patent US8168592B2 (Amgen Inc., priority 2005, dated 2012).
